The structures appear in SMILES notation. Where two headings read alike, the source gives them in different places.

The experiment has as its system alkaline protease API-25 produced by Bacillus sp. SD523 (Bacillus firmus, FERM BP-3774). Format: biochemical. The method, then:
To 500 μl of a 50 mM Atkins-Pantin phosphate buffer solution (pH 10) is added 50 μl of an enzyme solution diluted appropriately, and the resulting mixture is preincubated at 30° C. for 3 to 5 minutes. Then, 500 μl of a 2% Hammerstein casein solution (pH 10) is added to the solution, and after 10 minutes 2 ml of TCA solution (0.132M TCA, adjusted to pH 4 with an acetate buffer solution) is added thereto to stop the reaction. After leaving it to stand at 30° C. for 10~15 minutes, the mixture is filtered using No. 2 filter paper (produced by Toyo Filter Paper Co., Ltd.). To 1 ml of the filtrate solution are added 5 ml of 0.4M sodium carbonate and 1 ml of 6-fold diluted phenol reagent. After leaving the mixture to stand at 30° C. for 20 minutes for color development, its optical density is measured at 660 nm.
Influence of various inhibitors against the enzyme of the present invention is examined under the conditions and by the method described below.
Enzyme solutions containing the enzyme of the present invention in a concentration of 20 nkatal/ml are prepared using a 50 mM borate buffer solution (pH 10), respectively. Various inhibitors in concentrations as shown in Table 11 are added to the enzyme solutions, respectively. After incubating the resulting mixtures at 30° C. for 30 minutes, the residual activity of the enzyme in the mixtures is measured. Results obtained are shown in Table 11, in which the activity is expressed in terms of relative activity assuming that the activity in the absence of inhibitors is 100%.

Where [1] appears, read: inhibitor 1 mM, enzyme 20 nkatal/ml in 50 mM borate buffer pH 10, incubated 30° C. for 30 minutes, activity in the absence of inhibitors = 100%.
Setting [2] is: inhibitor 10 mM, enzyme 20 nkatal/ml in 50 mM borate buffer pH 10, incubated 30° C. for 30 minutes, activity in the absence of inhibitors = 100%.

`O=C(O)CN(CCN(CC(=O)O)CC(=O)O)CC(=O)O` [EDTA, Ethylenediaminetetraacetic acid]: the “Residual Activity (%)” value (pH 10) is 104%.
`O=C(O)c1cc[c]([Hg][Cl])cc1` [PCMB, pChloromercuribenzoic acid]: the “Residual Activity (%)” value reads like this: under setting [1], 98%; under setting [2], 90%.
Take `O=S(=O)(F)Cc1ccccc1` [PMSF, Phenylmethanesulfonyl fluoride]: the “Residual Activity (%)” value worked out at 31% under setting [1] and 0.7% under setting [2]. Besides, the “Inhibition of the enzyme (in words)” value (summary of Table 11, reveals that the enzyme is a serine protease) is “inhibited by phenylmethanesulfonyl fluoride (PMSF) considerably”.

Values taken from patent publication US5387518A, “Alkaline protease having stability in solution with anionic surfactant, method for producing the same, use thereof and microorganism producing the same” (priority 1991, dated 1995).
